What was measured:
[1] = system: human colon (HCT-116) cancer cell line; assay: MTT cytotoxicity assay, HCT116; type: cell-based; settings: for IC50: Homo sapiens, HCT-116, 72 h, six concentrations, mean ± SD of three independent experiments
Protocol: (§1) To establish a SAR of the C-3 (R2) and C-23 (R1) of the AA derivatives, new compounds were subjected to MTT assays to evaluate their in-vitro antiproliferative activities against ovarian (SKOV-3) and colon (HCT-116) cancer cell lines, the IC50 values (the concentration that inhibits 50% of cell growth) of which are summarized in Table 1. Doxorubicin was used as the positive drug.
(§2) HCT116, SKOV-3, A549, A2780, HepG2, HL-60 and MCF-7 cells were incubated in DMEM with 10% heat-inactivated FBS in a humidified atmosphere of 5.0% CO2 at 37 °C. The in-vitro cytotoxicity of AA derivatives was determined using MTT assay. A 100-μL volume of culture medium at a concentration of 3 × 10^4 cell/mL was added to 96-well plate wells, which were maintained in a humidified atmosphere of 5.0% CO2 at 37 °C. After 24 h, 10 μL solution of AA derivatives and doxorubicin dissolved in DMSO and phophate buffered saline (PBS) and then diluted with DMEM under a concentration gradient, was added in the wells for final concentrations of 100, 10, 1, 0.1, 0.01, 0.001 μM of compounds in HCT116 and SKOV-3 cells and 125, 25, 5, 1, 0.2, 0.04 μM in A549, A2780, HepG2, HL-60 and MCF-7 cells. After 72 h incubation in a humidified atmosphere of 5.0% CO2 at 37 °C, 20 μl MTT solution (5 mg/mL) was added into each well and the cells were incubated. After 4 h, 100 μL HCl aqueous solution (0.01 M) with 10% SDS and 5% isobutanol was added into each well to dissolve the precipitated formazan and the absorbance was read at 570 nm on Thermo Scientific Varioskan Flash plate reader. All IC50 values were averaged from three independent experiments.

[2] = system: human ovarian (SKOV-3) cancer cell line; assay: MTT cytotoxicity assay, SKOV-3; type: cell-based; settings: for IC50: Homo sapiens, SK-OV-3, 72 h, six concentrations, mean ± SD of three independent experiments; for IC50 / cytotoxic activity against SKOV-3 cell line (in words): MTT
Protocol: as §1, §2

SMILES	IC50 ([1]; MTT) [µM]	IC50 [2] [µM]	other results
CO[C@@H]1C[C@@]2(C)[C@@H](CC[C@]3(C)[C@@H]2CC=C2[C@@H]4[C@@H](C)[C@H](C)CC[C@]4(C(=O)NCc4ccccc4)CC[C@]23C)[C@](C)(C=O)C1=O [Compound 5, α-Methoxy-3,23-Dioxo-Urs-12-Ene-28-Benzylamide]	26 ± 6.68	> 100	–
CO[C@@H]1C[C@]2(C)[C@H]3CC=C4[C@@H]5[C@@H](C)[C@H](C)CC[C@]5(C(=O)NCc5ccccc5)CC[C@@]4(C)[C@]3(C)CC[C@H]2[C@](C)(C=O)[C@H]1O [Compound 6, α-Methoxy-3β-Hydroxy-23-Oxo-Urs-12-Ene-28-Benzylamide]	8.46 ± 1.64	–	–
CO[C@@H]1C[C@@]2(C)[C@@H](CC[C@]3(C)[C@@H]2CC=C2[C@@H]4[C@@H](C)[C@H](C)CC[C@]4(C(=O)NCc4ccccc4)CC[C@]23C)[C@](C)(C(=O)O)[C@H]1O [Compound 7, α-Methoxy-3β-Hydroxy-Urs-12-Ene-28-Benzylamide-23-Oic Acid]	16.7 ± 1.68	31.9 ± 2.59	–
COC(=O)[C@@]1(C)[C@@H]2CC[C@]3(C)[C@H](CC=C4[C@@H]5[C@@H](C)[C@H](C)CC[C@]5(C(=O)NCc5ccccc5)CC[C@]43C)[C@@]2(C)C[C@@H](OC)[C@@H]1O [Compound 9, α-Methoxy-3β-Hydroxy-Urs-12-Ene-28-Benzylamide-23-Methyl Ester]	3.07 ± 1.48	6.81 ± 3.87	fold more active than AA against HCT116 cell line ([1]; relative to AA): 8 fold; fold more active than AA against SKOV-3 cell line ([2]; relative to AA): 3 fold
COC(=O)[C@]1(C)C(=O)[C@H](OC)C[C@]2(C)[C@H]3CC=C4[C@@H]5[C@@H](C)[C@H](C)CC[C@]5(C(=O)NCc5ccccc5)CC[C@@]4(C)[C@]3(C)CC[C@@H]12 [Compound 11, α-Methoxy-3-Oxo-Urs-12-Ene-28-Benzyl Amide-23-Methyl Ester]	> 100	> 100	cytotoxic activity against HCT116 cell line (in words) ([1]; MTT): lost activity; cytotoxic activity against SKOV-3 cell line (in words) [2]: lost activity
CO[C@@H]1C[C@]2(C)[C@H]3CC=C4[C@@H]5[C@@H](C)[C@H](C)CC[C@]5(C(=O)NCc5ccccc5)CC[C@@]4(C)[C@]3(C)CC[C@H]2[C@](C)(C=O)[C@H]1OC(C)=O [Compound 12, α-Methoxy-3β-Acetoxy-23-Oxo-Urs-12-Ene-28-Benzyl Amide]	6.69 ± 1.15	> 100	–
CO[C@@H]1C[C@@]2(C)[C@@H](CC[C@]3(C)[C@@H]2CC=C2[C@@H]4[C@@H](C)[C@H](C)CC[C@]4(C(=O)NCc4ccccc4)CC[C@]23C)[C@](C)(C(N)=O)[C@H]1O [Compound 13a, α-Methoxy-3β-Hydroxy-Urs-12-Ene-28-Benzyl Amide-23-Amide]	7.45 ± 1.62	–	–
CNC(=O)[C@@]1(C)[C@@H]2CC[C@]3(C)[C@H](CC=C4[C@@H]5[C@@H](C)[C@H](C)CC[C@]5(C(=O)NCc5ccccc5)CC[C@]43C)[C@@]2(C)C[C@@H](OC)[C@@H]1O [Compound 13b, α-Methoxy-3β-Hydroxy-Urs-12-Ene-28-Benzyl Amide-23-Methylamide]	7.45 ± 3.53	–	–
CCNC(=O)[C@@]1(C)[C@@H]2CC[C@]3(C)[C@H](CC=C4[C@@H]5[C@@H](C)[C@H](C)CC[C@]5(C(=O)NCc5ccccc5)CC[C@]43C)[C@@]2(C)C[C@@H](OC)[C@@H]1O [Compound 13c, α-Methoxy-3β-Hydroxy-Urs-12-Ene-28-Benzyl Amide-23-Ethylamide]	11 ± 4.28	–	–
CO[C@@H]1C[C@@]2(C)[C@@H](CC[C@]3(C)[C@@H]2CC=C2[C@@H]4[C@@H](C)[C@H](C)CC[C@]4(C(=O)NCc4ccccc4)CC[C@]23C)[C@](C)(C(=O)NC(C)C)[C@H]1O [Compound 13d, α-Methoxy-3β-Hydroxy-Urs-12-Ene-28-Benzyl Amide-23-Isopropylamide]	8.57 ± 3.04	–	–
C#CCNC(=O)[C@@]1(C)[C@@H]2CC[C@]3(C)[C@H](CC=C4[C@@H]5[C@@H](C)[C@H](C)CC[C@]5(C(=O)NCc5ccccc5)CC[C@]43C)[C@@]2(C)C[C@@H](OC)[C@@H]1O [Compound 13e, α-Methoxy-3β-Hydroxy-Urs-12-Ene-28-Benzyl Amide-23-Propargylamide]	8.03 ± 2.79	6.72 ± 4.32	–
COC(=O)C(C)NC(=O)C1(C)C(O)C(OC)CC2(C)C1CCC1(C)C2CC=C2C3C(C)C(C)CCC3(C(=O)NCc3ccccc3)CCC21C [Compound 13f, N-(2α-Methoxy-3β-Hydroxy-Urs-12-Ene-28-Benzylamide-23-Oyl)-L-Alanine Methyl Ester]	4.35 ± 1.05	3.09 ± 1.54	–
COC(=O)C(NC(=O)C1(C)C(O)C(OC)CC2(C)C1CCC1(C)C2CC=C2C3C(C)C(C)CCC3(C(=O)NCc3ccccc3)CCC21C)C(C)C [Compound 13g, N-(2α-Methoxy-3β-Hydroxy-Urs-12-Ene-28-Benzylamide-23-Oyl)-L-Valine Methyl Ester]	9.69 ± 1.64	–	–
COC(=O)C(Cc1ccccc1)NC(=O)C1(C)C(O)C(OC)CC2(C)C1CCC1(C)C2CC=C2C3C(C)C(C)CCC3(C(=O)NCc3ccccc3)CCC21C [Compound 13h, N-(2α-Methoxy-3β-Hydroxy-Urs-12-Ene-28-Benzylamide-23-oyl)-L-Phenylalanine Methyl Ester]	> 50	> 100	cytotoxic activity against SKOV-3 cell line (in words) [2]: not active
CCOC(=O)CCCNC(=O)[C@@]1(C)[C@@H]2CC[C@]3(C)[C@H](CC=C4[C@@H]5[C@@H](C)[C@H](C)CC[C@]5(C(=O)NCc5ccccc5)CC[C@]43C)[C@@]2(C)C[C@@H](OC)[C@@H]1O [Compound 13i, N-(2α-Methoxy-3β-Hydroxy-Urs-12-Ene-28-Benzylamide-23-Oyl)-4-Aminobutyric Ethyl Ester]	15.2 ± 1.99	–	–
CO[C@@H]1C[C@@]2(C)[C@@H](CC[C@]3(C)[C@@H]2CC=C2[C@@H]4[C@@H](C)[C@H](C)CC[C@]4(C(=O)NCc4ccccc4)CC[C@]23C)[C@](C)(C(=O)N(C)C)[C@H]1O [Compound 13j, α-Methoxy-3β-Hydroxy-Urs-12-Ene-28-Benzyl Amide-23-Dimethylamide]	9.6 ± 4.58	–	–
CO[C@@H]1C[C@@]2(C)[C@@H](CC[C@]3(C)[C@@H]2CC=C2[C@@H]4[C@@H](C)[C@H](C)CC[C@]4(C(=O)NCc4ccccc4)CC[C@]23C)[C@](C)(C(N)=O)[C@H]1OC(C)=O [Compound 14a, α-Methoxy-3β-Acetoxy-Urs-12-Ene-28-Benzyl Amide-23-Amide]	6.52 ± 3.03	7.12 ± 2.61	–
CNC(=O)[C@@]1(C)[C@@H]2CC[C@]3(C)[C@H](CC=C4[C@@H]5[C@@H](C)[C@H](C)CC[C@]5(C(=O)NCc5ccccc5)CC[C@]43C)[C@@]2(C)C[C@@H](OC)[C@@H]1OC(C)=O [Compound 14b, α-Methoxy-3β-Acetoxy-Urs-12-Ene-28-Benzyl Amide-23-Methylamide]	34.2 ± 7.87	–	–
CCNC(=O)[C@@]1(C)[C@@H]2CC[C@]3(C)[C@H](CC=C4[C@@H]5[C@@H](C)[C@H](C)CC[C@]5(C(=O)NCc5ccccc5)CC[C@]43C)[C@@]2(C)C[C@@H](OC)[C@@H]1OC(C)=O [Compound 14c, α-Methoxy-3β-Acetoxy-Urs-12-Ene-28-Benzyl Amide-23-Ethylamide]	> 100	> 100	–
CO[C@@H]1C[C@@]2(C)[C@@H](CC[C@]3(C)[C@@H]2CC=C2[C@@H]4[C@@H](C)[C@H](C)CC[C@]4(C(=O)NCc4ccccc4)CC[C@]23C)[C@](C)(C(=O)NC(C)C)[C@H]1OC(C)=O [Compound 14d, α-Methoxy-3β-Acetoxy-Urs-12-Ene-28-Benzyl Amide-23-Isopropylamide]	> 100	> 100	–
C#CCNC(=O)[C@@]1(C)[C@@H]2CC[C@]3(C)[C@H](CC=C4[C@@H]5[C@@H](C)[C@H](C)CC[C@]5(C(=O)NCc5ccccc5)CC[C@]43C)[C@@]2(C)C[C@@H](OC)[C@@H]1OC(C)=O [Compound 14e, α-Methoxy-3β-Acetoxy-Urs-12-Ene-28-Benzyl Amide-23-Propargylamide]	> 100	> 100	–
COC(=O)C(C)NC(=O)C1(C)C(OC(C)=O)C(OC)CC2(C)C1CCC1(C)C2CC=C2C3C(C)C(C)CCC3(C(=O)NCc3ccccc3)CCC21C [Compound 14f, N-(2α-Methoxy-3β-Acetoxy-Urs-12-Ene-28-Benzylamide-23-oyl)-L-Alanine Methyl Ester]	> 50	> 100	–
COC(=O)C(NC(=O)C1(C)C(OC(C)=O)C(OC)CC2(C)C1CCC1(C)C2CC=C2C3C(C)C(C)CCC3(C(=O)NCc3ccccc3)CCC21C)C(C)C [Compound 14g, N-(2α-Methoxy-3β-Acetoxy-Urs-12-Ene-28-Benzylamide-23-Oyl)-L-Valine Methyl Ester]	> 100	> 100	–
COC(=O)C(Cc1ccccc1)NC(=O)C1(C)C(OC(C)=O)C(OC)CC2(C)C1CCC1(C)C2CC=C2C3C(C)C(C)CCC3(C(=O)NCc3ccccc3)CCC21C [Compound 14h, N-(2α-Methoxy-3β-Acetoxy-Urs-12-Ene-28-Benzylamide-23-Oyl)-L-Phenylalanine Methyl Ester]	> 100	> 100	–

Reference: paper PMC7464201, “Synthesis and Cytotoxic Activity of Novel C-23-Modified Asiatic Acid Derivatives” (Molecules, 2020)
